Experiments:
[1] = tested on: human PGC-1β promoter; experiment: human PGC-1β promoter luciferase reporter (phPGC1β (1.0) Luc) in L6 cells; assay type: cell-based; settings: final concentration of 1 μmol/L to 10 μmol/L, 24 hours
Procedure: phPGC1β (1.0) Luc plasmid constructed in Example 9, in accordance with the following procedures. L6 cells were cultivated in a tissue culture dish having a diameter of 10 cm to become 80% confluent. The cells were cotransfected with 5 μg of the phPGC1β (1.0) Luc plasmid and 1 μg of plasmid pCH110 (Pharmacia Biotech) using a regent for transfection (FuGENE™ T6, Roche, Cat. No. 1815091). In this connection, the plasmid pCH110 containing a β-galactosidase gene regulated by a β-actin promoter was used to standardize an efficiency of transfection. After 24 hours from the transfection, the cells were transferred to a 96-well tissue culture dish, and further cultured for 6 hours. Since it was reported that the combination of forskolin and dexamethasone induced an expression of endogenous PGC-1 in hepatocytes [J. Biol. Chem., 278: 30843 (2003)], the cells were treated with 10 μmol/L (final concentration) forskolin and 1 μmol/L dexamethasone [solvent=dimethyl sulfoxide (DMSO)] for 24 hours. After the treatment, the cells were lysed with a solution for cell lysis (LCβ; Toyo Ink, Japan), and a luciferase activity therein was measured using a PicaGene luminescence kit (Toyo Ink, Japan, 309-04321). In this connection, the activity was measured 3 times per group, and each experiment was repeated at least twice, to confirm the reproducibility. […]

[2] = tested on: differentiated L6 cells; experiment: activity of glucose uptake (2-deoxy-D-[U-14C] glucose) in differentiated L6 cells; assay type: cell-based, rat; settings: compound at 1 μmol/L to 10 μmol/L for 24 hours, FIG. 5
Procedure: A tissue into which the largest amount of glucose can be incorporated in a living body is muscle. In this example and the following examples, a rat myoblast L6 was used to detect an activity of glucose uptake in vitro. L6 cells (ATCC, CRL-1458) were maintained in a Dulbecco's modified Eagle's medium (GIBCO BRL, USA, 11995-065) supplemented with 10% fetal bovine serum (JRH BIOSCIENCES, Cat. No. 12303-500M), and cultured in a humid atmosphere containing 5% CO2 at 37° C. When the L6 cells were confluent, the medium was changed to a Dulbecco's modified Eagle's medium supplemented with 2% horse serum (GIBCO, Cat. No. 16050), and further cultured for 5 days to perform an induction of differentiation.
The cells overexpressing human PGC-1β or human PGC-1α, prepared in accordance with the procedures described in Example 4, were used to measure an activity of glucose uptake. After 48 hours from the infection, the cells were rinsed with 1 mL of a KRP buffer ([…], 4.7 mmol/L KCl, 1.25 mmol/L CaCl2.2H2O, 1.25 mmol/L MgSO4.7H2O, and 5 mmol/L Na2HPO4.12H2O), and further cultured in 500 μL of KRP for 1 hour. […] Each lysate was mixed with 2 mL of a liquid scintillator (AQUASOL 2, PERKINELMER, Cat. No. 6NE9529), and an amount of radiolabeled compound (radioactivity, CPM) incorporated into the cells was measured using a liquid scintillation counter (PACKARD, B2500TR). […]

## Nc1cccc(-c2nc3cc(C(=O)c4ccccc4)ccc3[nH]2)c1 [compound A, 2-(3-aminophenyl)-5-benzoyl-(1H)-benzimidazole]
[1]
  activating activity of the human PGC-1β promoter (reporter luciferase activity) in comparison with absence of the compound: ≥ 2 times
[2]
  activity of glucose uptake in muscle cells: significantly activated glucose uptake

— patent US20080070249A1, “Novel Activating Agent of Glucose Uptake and a Screening Method Therefor” (ASTELLAS PHARMA INC., priority 2005, published 2008)
